The text below walks through data of publication PMC10143822, “Structural Adaptation of the Single-Stranded DNA-Binding Protein C-Terminal to DNA Metabolizing Partners Guides Inhibitor Design” (Pharmaceutics, 2023).

One assay addresses T1, RecO (Escherichia coli, UniProt P0A7H3).
T1 construct: His-tag (TEV site) (N, cleaved yes); made in house; host or cells: E. coli Rosetta cells
Nature of the assay: biochemical. The assay is classed as binding. The conditions noted are these: 0.5 μM RecO, 50 nM F-wtSSB tracer, 0–500 μM unlabeled peptide, 30 min room temperature; 20 mM Tris-HCl pH 8.0, 200 mM NaCl, 10% glycerol, 0.01% Triton-X 100; 25 °C; triplicate; read-out: IC50 on RecO, competitive fluorescence anisotropy. Here is the method: (§1) Triplicate measurements were performed using a Clariostar Plus Microplate Reader in 384-well plates for all fluorescence anisotropy (FA) experiments. The settings were 25 °C, excitation at 485 nm, emission at 510 nm, settling time of 0.2 s, and 200 flashes per well.
(§2) Competition fluorescence anisotropy experiments were carried out as follows: protein (0.5 μM either ExoI or RecO) was incubated with 50 nM F-wtSSB peptide and 0–500 μM unlabeled wtSSB (or a variant) peptide for 30 min at room temperature. For direct fluorescence anisotropy measurements, 16 µM ExoI and 7.5 µM RecO were used in the first well. After serial dilution, either 50 nM of F-mSSB or F-sSSB was added to the wells and then incubated for 30 min. Buffers used included 20 mM Tris-HCl (pH 8.0), 100 mM NaCl, 1 mM MgCl2, 1 mM 2-mercaptoethanol, 10% (v/v) glycerol, for ExoI and 20 mM Tris-HCl (pH 8.0), 200 mM NaCl, 1 mM 2-mercaptoethanol, 10% (v/v) glycerol, and 0.01% Triton-X 100 for RecO [37].
(§3) Fluorescence anisotropy values were normalized and are shown as bound fractions (BF, %). BF=r−rmin/λ(rmax−r)+r−rmin, I=2∗PG+S, r=S−PG/I, where r: anisotropy, I: total intensity, P: perpendicular intensity, S: parallel intensity, G: an instrument factor set to 1, BF: ligand fraction bound, and λ=λbound/λunbound=1 .
(§4) Competitive fluorescence anisotropy was analyzed in Origin Pro 9.5, and IC50 values were determined using the Logistic Nonlinear fit function and are shown as plots for each mutated position for each protein in Figures S4 and S6. EC50 values from direct fluorescence anisotropy titrations were plotted in Origin 9.5. Values were determined using the Logistics Nonlinear fit function.

In another assay the target is T2, ExoI (Escherichia coli, UniProt P04995).
T2 construct: His-tag (cleaved yes); host or cells: E. coli BL21 (DE3) pLysS
The assay is described as follows: biochemical. Type of assay: binding, E. coli. Here is the method:
as §1, §2, §3, §4

Where a SMILES comes first, the peptide text is derived from it. Where no end group is shown, it is not given here. [ ]: non-standard residue; d: D form. Phe(4-Cl) = N[C@@H](Cc1ccc(Cl)cc1)C(=O)O; 3Pal = N[C@@H](Cc1cccnc1)C(=O)O; Tic = O=C(O)[C@@H]1Cc2ccccc2CN1; β3hF = N[C@H](CC(=O)O)Cc1ccccc1; NMeD = CN[C@@H](CC(=O)O)C(=O)O; β3hD = NC(CC(=O)O)CC(=O)O

T1 sequence (P0A7H3 whole entry): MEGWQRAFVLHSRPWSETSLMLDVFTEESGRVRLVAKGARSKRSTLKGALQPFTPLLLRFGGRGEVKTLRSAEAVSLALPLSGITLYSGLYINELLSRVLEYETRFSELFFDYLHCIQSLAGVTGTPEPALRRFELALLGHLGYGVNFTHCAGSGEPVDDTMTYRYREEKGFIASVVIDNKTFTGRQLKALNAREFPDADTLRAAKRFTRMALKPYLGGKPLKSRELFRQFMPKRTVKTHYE
T2 sequence (P04995 whole entry): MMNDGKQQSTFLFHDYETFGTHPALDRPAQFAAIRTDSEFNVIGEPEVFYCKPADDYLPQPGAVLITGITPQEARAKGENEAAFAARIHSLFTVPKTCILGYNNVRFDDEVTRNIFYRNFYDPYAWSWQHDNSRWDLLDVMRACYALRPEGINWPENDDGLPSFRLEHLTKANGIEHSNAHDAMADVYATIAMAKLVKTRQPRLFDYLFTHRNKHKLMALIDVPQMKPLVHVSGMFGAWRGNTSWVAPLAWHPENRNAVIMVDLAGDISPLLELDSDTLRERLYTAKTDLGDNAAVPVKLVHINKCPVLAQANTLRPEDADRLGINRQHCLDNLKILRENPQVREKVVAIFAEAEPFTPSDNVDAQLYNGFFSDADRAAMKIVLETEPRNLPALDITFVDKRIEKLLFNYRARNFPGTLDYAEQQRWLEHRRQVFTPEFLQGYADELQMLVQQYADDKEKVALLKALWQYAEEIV

The term IC50 denotes the concentration needed to halve the response being measured. `CC[C@H](C)[C@H](NC(=O)[C@H](CC(=O)O)NC(=O)[C@H](CC(=O)O)NC(=O)[C@H](CC(=O)O)NC(=O)[C@@H](Cc1ccccc1)NC(=O)[C@H](CC(=O)O)NC(C)=O)C(=O)N1CCC[C@H]1C(=O)N[C@@H](Cc1ccccc1)C(=O)O` [D-Phe2] (Ac-D[dF]DDDIPF-OH): the IC50 at RecO was determined as 2.75 ± 0.59 µM; at ExoI, 3.49 ± 2.41 µM.

Take `CC[C@H](C)[C@H](NC(=O)[C@H](CC(=O)O)NC(=O)[C@H](CC(=O)O)NC(=O)[C@H](CC(=O)O)NC(=O)[C@H](Cc1ccccc1)NC(=O)[C@H](CC(=O)O)NC(C)=O)C(=O)N1CCC[C@H]1C(=O)N1Cc2ccccc2C[C@H]1C(=O)O` [Tic8] (Ac-DFDDDIP[Tic]-OH): the half-inhibitory concentration (IC50) amounted to 141 ± 8.37 µM at RecO and 96.1 ± 83.8 µM at ExoI.

On to Ac-NFDDDIPF [Asn1], for which the figures for the 50% inhibitory concentration (IC50) at RecO and at ExoI were 13.8 ± 17.2 µM and 9.31 ± 0.4 µM, respectively.

For Ac-DFDDNIPF [Asn5], the IC50 at RecO turned out to be 16 ± 0.51 µM; on ExoI, 7.92 ± 0.62 µM.

In the case of Ac-EFDDDIPF [Glu1], the concentration for half-maximal inhibition (IC50) on RecO was 5.17 ± 1.1 µM; against ExoI, 1.33 ± 0.09 µM.

`CC[C@H](C)[C@H](NC(=O)[C@H](CC(=O)O)N(C)C(=O)[C@H](CC(=O)O)NC(=O)[C@H](CC(=O)O)NC(=O)[C@H](Cc1ccccc1)NC(=O)[C@H](CC(=O)O)NC(C)=O)C(=O)N1CCC[C@H]1C(=O)N[C@@H](Cc1ccccc1)C(=O)O` [NM-Asp5] (Ac-DFDD[NMeD]IPF-OH): the IC50 on RecO was determined as 9.33 ± 4.3 µM; against ExoI, 9.3 ± 0.66 µM.

`CC[C@H](C)[C@H](NC(=O)[C@H](CC(=O)O)NC(=O)[C@H](CC(=O)O)NC(=O)[C@H](CC(=O)O)NC(=O)[C@H](Cc1ccccc1)NC(=O)[C@H](CC(=O)O)NC(C)=O)C(=O)N1CCC[C@H]1C(=O)N[C@@H](Cc1cccnc1)C(=O)O` [3Pal8] (Ac-DFDDDIP[3Pal]-OH): the IC50 amounted to 31.9 ± 4.16 µM on RecO and 19.9 ± 2.81 µM at ExoI.

Consider `CC[C@H](C)[C@H](NC(=O)[C@H](CC(=O)O)NC(=O)[C@H](CC(=O)O)NC(=O)[C@H](CC(=O)O)NC(=O)[C@H](Cc1ccccc1)NC(=O)[C@H](CC(=O)O)NC(C)=O)C(=O)N1CCC[C@H]1C(=O)N[C@@H](Cc1ccc(Cl)cc1)C(=O)O` [4-Cl-Phe8] (Ac-DFDDDIP[Phe(4-Cl)]-OH), for which the half-inhibitory concentration (IC50) turned out to be 3.62 ± 0.84 µM at RecO and 1.41 ± 0.18 µM against ExoI.

As to `CC[C@H](C)[C@H](NC(=O)[C@H](CC(=O)O)NC(=O)[C@H](CC(=O)O)NC(=O)[C@H](CC(=O)O)NC(=O)[C@@H]1Cc2ccccc2CN1C(=O)[C@H](CC(=O)O)NC(C)=O)C(=O)N1CCC[C@H]1C(=O)N[C@@H](Cc1ccccc1)C(=O)O` [Tic2] (Ac-D[Tic]DDDIPF-OH), the IC50 is 3.99 ± 0.1 µM on RecO and 6.6 ± 0.55 µM against ExoI.

Consider `CC[C@H](C)[C@H](NC(=O)[C@H](CC(=O)O)NC(=O)[C@H](CC(=O)O)NC(=O)[C@H](CC(=O)O)NC(=O)C[C@H](Cc1ccccc1)NC(=O)[C@H](CC(=O)O)NC(C)=O)C(=O)N1CCC[C@H]1C(=O)N[C@@H](Cc1ccccc1)C(=O)O` [β3-Phe2] (Ac-D[β3hF]DDDIPF-OH), for which the IC50 at RecO amounted to 3.66 ± 0.61 µM; at ExoI, 3.8 ± 0.11 µM.

For `CC[C@H](C)[C@H](NC(=O)[C@H](CC(=O)O)NC(=O)[C@H](CC(=O)O)NC(=O)C[C@H](CC(=O)O)NC(=O)[C@H](Cc1ccccc1)NC(=O)[C@H](CC(=O)O)NC(C)=O)C(=O)N1CCC[C@H]1C(=O)N[C@@H](Cc1ccccc1)C(=O)O` [β3-Asp3] (Ac-DF[β3hD]DDIPF-OH), the IC50 was 8.92 ± 0.39 µM at RecO and 3.65 ± 0.16 µM against ExoI.
